Test results published in patent publication US20060079453A1, “Hla binding peptides and their uses” (priority 2002, published 2006).
Like-named read-outs stand apart in the source and are kept apart here. No end group written: not given here.

Experiments:
Assay in all cases: biochemical
Assay type in all cases: binding
HLA-DR DRB1*0701 (DR7) = HLA-DR DRB1*0701 (DR7) (Homo sapiens, UniProt P01903+P01911, A100R/A102G/A103Q/D57E/D86V/E43K/F76Y/K127E/L162R/M171V/P40G/Q125H/Q99D/R33Q/R42Y/R54Q/S133A/S66F/T210M/V115G/Y107V/Y59L/Y89S)
HLA-DR DRB5*0101 (DR51) = HLA-DR DRB5*0101 (DR51) (Homo sapiens, UniProt P01903+Q30154); settings: DRB5 *0101
HLA-DR DRB1*1302 (DR13) = HLA-DR DRB1*1302 (DR13) (Homo sapiens, UniProt P01903+P01911, A100E/A169T/K41T/L162R/M171V/P40S/Q125H/Q178H/Q39Y/Q99D/R42S/S66N/T262R/V115G/W38E/Y61H); settings: DRBI *1302
HLA-DR DRB1*1302 (DR13), sequence (P01903 26-254 limits assumed, other chains not shown): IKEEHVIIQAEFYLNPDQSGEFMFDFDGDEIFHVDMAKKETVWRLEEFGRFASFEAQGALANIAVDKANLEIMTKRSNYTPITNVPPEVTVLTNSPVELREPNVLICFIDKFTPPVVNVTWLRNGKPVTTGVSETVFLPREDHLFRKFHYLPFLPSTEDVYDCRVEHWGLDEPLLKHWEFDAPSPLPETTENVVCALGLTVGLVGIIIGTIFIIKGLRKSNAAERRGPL

HLA-DR DRB1*1501 (DR15) = HLA-DR DRB1*1501 (DR15) (Homo sapiens, UniProt P01903+P01911); settings: DRBI *1501
HLA-DR DRB1*0405 (DR4) = HLA-DR DRB1*0405 (DR4) (Homo sapiens, UniProt P01903+P01911, A100R/A169T/D86S/F76Y/I96L/K127E/L162R/M171V/N62H/P40V/Q125Y/R42H/S133A/S149N/S66Y/V115G/V209L/W38E)
HLA-DR DRB1*1101 (DR11) = HLA-DR DRB1*1101 (DR11) (Homo sapiens, UniProt P01903+P01911, A100R/A169T/A87E/I96F/K41T/L162R/M171V/P40S/Q125H/Q178H/Q39Y/Q99D/R42S/S66Y/T262R/V115G/W38E); settings: DRB1 *1101
HLA-DR DRB1*1101 (DR11), sequence (P01903 26-254 limits assumed, other chains not shown): as above

HLA-DR DRB4*0101 (DR53) = HLA-DR DRB4*0101 (DR53) (Homo sapiens, UniProt P01903+P13762, G164S); settings: DRB4 *0101
HLA-DR DRB1*0901 (DR9) = HLA-DR DRB1*0901 (DR9) (Homo sapiens, UniProt P01903+P01911, A100R/A103E/D57H/D86V/F55Y/F60I/F76Y/I96F/K127E/L162R/M171V/P40D/Q125H/Q99R/R33Q/R42F/S133A/S66N/T210M/V115G/W38K/Y107V/Y59G/Y89S)
HLA-DR DRB1*0301 (DR3) = HLA-DR DRB1*0301 (DR3) (Homo sapiens, UniProt P01903+P01911, A100K/A102G/A103R/A169T/F55Y/I96L/K41T/L162R/M171V/P40S/Q125H/Q178H/Q39Y/R42S/S66N/T106N/T262R/W38E/Y61H)
HLA-DR DRB1*0301 (DR3), sequence (P01903 26-254 limits assumed, other chains not shown): as above

HLA-DR DRB1*0101 (DR1) = HLA-DR DRB1*0101 (DR1) (Homo sapiens, UniProt P01903+P01911, A100R/D57E/F55L/F60I/F76Y/I96L/L162R/M171V/P40L/Q125E/R42F/V115G/Y59C)
HLA-DR DRB1*0401 (DR4) = HLA-DR DRB1*0401 (DR4) (Homo sapiens, UniProt P01903+P01911, A100K/A169T/F76Y/I96L/K127E/L162R/M171V/N62H/P40V/Q125Y/R42H/S133A/S149N/S66Y/V115G/V209L/W38E)

Compound | IC50 (HLA-DR DRB1*0701 (DR7); DRB1 *0701) | IC50 (HLA-DR DRB5*0101 (DR51)) | IC50 (HLA-DR DRB1*1302 (DR13)) | IC50 (HLA-DR DRB1*1501 (DR15)) | IC50 (HLA-DR DRB1*0405 (DR4); DRB1 *0405) | IC50 (HLA-DR DRB1*1101 (DR11)) | IC50 (HLA-DR DRB4*0101 (DR53)) | IC50 (HLA-DR DRB1*0901 (DR9); DRB1 *0901) | IC50 (HLA-DR DRB1*0301 (DR3)) | IC50 (HLA-DR DRB1*0101 (DR1); DRB1 *0101) | IC50 (HLA-DR DRB1*0401 (DR4); DRB1 *0401) | IC50 (HLA-DR DRB1*0405 (DR4); read-out: DRB1 *0405) | IC50 (HLA-DR DRB1*0301 (DR3); read-out: DRB1 *0301) | IC50 (HLA-DR DRB1*0101 (DR1); read-out: DRB1 *0101) | IC50 (HLA-DR DRB1*0701 (DR7); read-out: DRB1 *0701) | IC50 (HLA-DR DRB1*0901 (DR9); read-out: DRB1 *0901) | IC50 (HLA-DR DRB1*0401 (DR4); read-out: DRB1 *0401)
CSCC[C@H](NC(=O)[C@H](Cc1ccc(O)cc1)NC(=O)[C@H](CCC(=O)O)NC(=O)[C@@H](N)Cc1c[nH]cn1)C(=O)N[C@@H](CC(C)C)C(=O)N[C@@H](CC(=O)O)C(=O)N[C@@H](CC(C)C)C(=O)N[C@@H](CCC(N)=O)C(=O)N1CCC[C@H]1C(=O)N[C@@H](CCC(=O)O)C(=O)N[C@H](C(=O)N[C@H](C(=O)N[C@@H](CC(=O)O)C(=O)N[C@@H](CC(C)C)C(=O)N[C@@H](Cc1ccc(O)cc1)C(=O)O)[C@@H](C)O)[C@@H](C)O | > 18600 nM | > 22900 nM | 13000 nM | 30900 nM | 2290 nM | > 56200 nM | 2100 nM | 21300 nM | – | – | – | – | – | – | – | – | –
CC[C@H](C)[C@H](NC(=O)[C@H](CO)NC(=O)[C@H](CC(=O)O)NC(=O)[C@H](CCCNC(=N)N)NC(=O)[C@H](Cc1ccc(O)cc1)NC(=O)[C@@H](NC(=O)[C@@H](NC(=O)[C@H](Cc1ccccc1)NC(=O)[C@@H](N)CC(C)C)C(C)C)C(C)C)C(=O)N1CCC[C@H]1C(=O)N[C@@H](Cc1c[nH]cn1)C(=O)N[C@@H](C)C(=O)N[C@@H](C)C(=O)N[C@@H](CS)C(=O)N[C@@H](Cc1c[nH]cn1)C(=O)O | 2000 nM | 7850 nM | 697 nM | 437 nM | 690 nM | 1580 nM | 3580 nM | – | 62 nM | 131 nM | 3 nM | – | – | – | – | – | –
CC(C)C[C@H](NC(=O)[C@H](CCC(N)=O)NC(=O)[C@H](CCC(N)=O)NC(=O)[C@H](CC(C)C)NC(=O)[C@@H](NC(=O)[C@H](CCCNC(=N)N)NC(=O)[C@@H](N)CC(C)C)[C@@H](C)O)C(=O)N[C@@H](Cc1ccccc1)C(=O)N[C@@H](CC(C)C)C(=O)N[C@@H](CO)C(=O)N[C@H](C(=O)N[C@@H](CC(C)C)C(=O)N[C@@H](CO)C(=O)N[C@@H](Cc1ccccc1)C(=O)N[C@H](C(=O)O)C(C)C)[C@@H](C)O | 60 nM | 1990 nM | 55 nM | 29 nM | 9 nM | 208 nM | 3.1 nM | – | 801 nM | 8.3 nM | 18 nM | – | – | – | – | – | –
CC[C@H](C)[C@H](NC(=O)[C@@H](N)Cc1c[nH]c2ccccc12)C(=O)N[C@H](C(=O)N[C@@H](CCC(N)=O)C(=O)N[C@@H](CS)C(=O)N[C@@H](Cc1ccccc1)C(=O)N[C@@H](CC(C)C)C(=O)N1CCC[C@H]1C(=O)N[C@H](C(=O)N[C@@H](Cc1ccccc1)C(=O)N[C@@H](CC(C)C)C(=O)N[C@@H](C)C(=O)N[C@@H](CCC(N)=O)C(=O)N1CCC[C@H]1C(=O)N1CCC[C@H]1C(=O)N[C@@H](CO)C(=O)NCC(=O)N[C@@H](CCC(N)=O)C(=O)N[C@@H](CCCNC(=N)N)C(=O)N[C@@H](CCCNC(=N)N)C(=O)O)C(C)C)[C@@H](C)O | 74200 nM | – | – | – | 216 nM | – | – | – | 25500 nM | 679 nM | 88 nM | – | – | – | – | – | –
CKFVVQLDIQSTKED [CKFVVQLDIQSTKED] | 4550 nM | > 31400 nM | > 11400 nM | 22900 nM | 374 nM | > 31600 nM | 301 nM | 19300 nM | – | – | – | – | – | – | – | – | –
DLFVVYRDSIPHAAC | 5210 nM | 10700 nM | 11200 nM | 2830 nM | 3590 nM | – | 2680 nM | 2370 nM | – | – | 82 nM | – | – | – | – | – | –
HQAISPRTLNGPGPGSPAIF | 5080 nM | 32900 nM | 638 nM | 5570 nM | 3110 nM | 9870 nM | 232 nM | – | 728000 nM | 1550 nM | – | – | – | – | – | – | –
HYCYSLYGTTLEQQY | 9860 nM | > 10700 nM | > 13700 nM | 4850 nM | 76 nM | – | – | – | – | 546 nM | – | – | – | – | – | – | –
IDGVNHQHLPARRAE | > 18600 nM | 12600 nM | > 11500 nM | > 36800 nM | > 17000 nM | > 56200 nM | – | > 39900 nM | – | – | 34300 nM | – | – | – | – | – | –
IQQLLMGTVNIYCPT | – | – | – | – | – | – | – | – | – | – | – | 624 nM | 93700 nM | 71 nM | – | – | –
KDYILDLQPETTDLH | > 72300 nM | > 55100 nM | 23700 nM | > 37400 nM | 2770 nM | > 17400 nM | 490 nM | > 49900 nM | – | – | 1020 nM | – | – | – | – | – | –
LRAFQQLFLNTLSFV | 75 nM | – | 1.01 nM | 20 nM | 8.3 nM | – | 2.2 nM | – | 648 nM | 1.5 nM | 7.4 nM | – | – | – | – | – | –
LRIVYRDGNPFAVCK | 8990 nM | 6820 nM | 123 nM | – | 557 nM | 109 nM | 1570 nM | – | – | – | 16 nM | – | – | – | – | – | –
NYSVYGNTLEQTVKK | > 14600 nM | – | 8610 nM | 15600 nM | 822 nM | > 56700 nM | > 25100 nM | 47500 nM | – | 14100 nM | 1930 nM | – | – | – | – | – | –
QDVVLELTPQTEIDL | – | > 31400 nM | – | > 33100 nM | 53 nM | > 31600 nM | 1720 nM | 1680 nM | – | – | 83 nM | – | – | – | – | – | –
REVYKFLFTDLRIVY | 54 nM | 155 nM | 80 nM | 258 nM | 52 nM | 2260 nM | 203 nM | 204 nM | – | 8.7 nM | – | – | – | – | – | – | –
RQDILDLWVYHTQGY | 1630 nM | 16200 nM | 6780 nM | 723 nM | 1140 nM | > 51300 nM | 1330 nM | – | 98300 nM | 2390 nM | 1200 nM | – | – | – | – | – | –
RTAMFQDPQERPRKL | 32900 nM | 7470 nM | 17100 nM | 73200 nM | 7980 nM | – | 20500 nM | > 25300 nM | – | 9370 nM | 28200 nM | – | – | – | – | – | –
TEVLDFAFTDLTIVY | – | > 62300 nM | > 13100 nM | 561 nM | 871 nM | > 18000 nM | – | 349 nM | – | 2070 nM | – | – | – | – | – | – | –
VFEFAFKDLFVVYRD | – | > 10700 nM | 7670 nM | 4870 nM | 120 nM | – | 18100 nM | 16800 nM | – | 6720 nM | – | – | – | – | – | – | –
VPTLQDVVLELTPQT | > 35400 nM | > 31400 nM | 15000 nM | – | 5410 nM | > 31600 nM | 1000 nM | > 30600 nM | – | 16100 nM | 214 nM | – | – | – | – | – | –
VVQLDIQSTKEDLRV | – | – | – | – | – | – | – | – | – | – | – | 46 nM | – | – | 3760 nM | 13900 nM | 11100 nM
YDFVFADLRIVYRNG | – | – | – | – | – | – | – | – | – | – | – | 829 nM | 13 nM | – | 21400 nM | – | 1910 nM
YKFLFTDLRIVYRDN | 1520 nM | 800 nM | 77 nM | 2910 nM | 91 nM | 10100 nM | 1340 nM | – | 8.8 nM | 109 nM | – | – | – | – | – | – | –
YLAMPFATPMEAELARRSLA | – | 641 nM | 2810 nM | 865 nM | 405 nM | – | 1960 nM | – | 46600 nM | 46 nM | 266 nM | – | – | – | – | – | –
YYDYSVYGATLESIT | – | > 51000 nM | – | 1110 nM | 230 nM | 9120 nM | 32400 nM | 1400 nM | – | 1010 nM | – | – | – | – | – | – | –
